{"source": "paper PMC11264232", "about": "“Are the metal identity and stoichiometry of metal complexes important for colchicine site binding and inhibition of tubulin polymerization?” (Dalton Transactions (Cambridge, England : 2003), 2024)", "key": {"EKVX": {"system": "EKVX", "experiment": "NCI-60 five-dose screen", "type": "cell-based, human", "conditions": "Non-Small Cell Lung Cancer", "description": "(§1) The proligands HL^1–HL^3 and their corresponding metal complexes 1–8 prepared in this study were subjected to evaluation of their anticancer potential, including selectivity towards specific types of cancer: leukemia, non-small cell lung (NSCLC), colon, central nervous system (CNS), melanoma, ovarian, renal, prostate and breast cancers, by the National Cancer Institute's Developmental Therapeutics Program. This evaluation involved the utilization of the NCI 60 human tumor cell line panel.[57]\n(§2) The NCI-60 SRB assay was performed as described previously.[76] GI50 values (the concentration of the metal complex causing 50% growth inhibition), TGI value (the concentration of the complex causing 0% cell growth), and LC50 (the concentration of the complex causing 50% cell death) were interpolated from dose–response curves that were plots of percentage cell growth versus concentration of test compounds."}, "U251": {"system": "U251", "experiment": "NCI-60 five-dose screen", "type": "cell-based, human", "conditions": "CNS cancer", "description": "as §1, §2"}, "OVCAR-8": {"system": "OVCAR-8", "experiment": "NCI-60 five-dose screen", "type": "cell-based, human", "conditions": "Ovarian cancer", "description": "as §1, §2"}, "[1]": {"system": "A549 human lung adenocarcinoma cells", "experiment": "MTT viability assay, 24 h", "conditions": "read-out: IC50 values A549; A549 cells, 24 h, MTT assay", "protocol": "(§3) We wanted to compare the cytotoxicity of proligands HL^1–HL^3 and of their Co(III) and Fe(III) complexes 1, 2 and 4, 5 on cell lines originating from the same tissue, so human lung carcinoma A549 cells and lung fibroblast MRC-5 cells were subjected to 24 h treatments.\n(§4) The biological effects of selected metal complexes (1, 2, 4 and 5) and of their proligands (HL^1, HL^2 and HL^3) were tested more extensively on A549 human lung adenocarcinoma cells and on MRC-5 human lung fibroblast cells. Both cell lines were obtained from ATCC and maintained in DMEM cell culture media containing 1.0 g L^−1 glucose (Biosera, Nuaille, France) complemented with 10% fetal bovine serum (FBS), 2 mM L-glutamine, 0.01% streptomycin and 0.005% penicillin and were cultured under standard conditions in a 37 °C incubator at 5% CO2 and 95% humidity. The viability of A549 and of MRC-5 fibroblast cells upon exposure to the selected metal–ligand complexes and ligands were evaluated by the MTT assay. For this, 10 000 cells per well were seeded into 96-well plates and left to grow. On the next day the cells were exposed to 0, 5, 10, 20, 40 or 80 μM of each compound or to an equivalent volume of DMSO for 24 h. After the treatments, cells were washed with PBS and then were incubated with 0.5 mg mL^−1 MTT reagent (Sigma-Aldrich, St Louis, Missouri, USA) for 1 h at 37 °C. Finally, 100 μL of DMSO (Molar Chemicals, Halásztelek, Hungary) was added to each well, and the absorbance of samples was measured at 570 nm using a Synergy HTX plate reader (BioTek, Winooski, Vermont, USA). The viability measurements were repeated three times using 3 independent biological replicates."}, "[2]": {"system": "MRC-5 human lung fibroblast cells", "experiment": "MTT viability assay, 24 h", "conditions": "read-out: IC50 values MRC-5; MRC-5 fibroblasts, 24 h, MTT assay", "protocol": "as §3, §4"}}, "note": "Where “and” joins values, the source holds several entries; their conditions need not be identical. Equal values may be shown once.", "data": [{"smiles": "CC(=NN=C([S-])Nc1cc(C)c(O)c(C)c1)c1cccc(CN2CCOCC2)n1.CC(=NN=C([S-])Nc1cc(C)c(O)c(C)c1)c1cccc(CN2CCOCC2)n1.O=[N+]([O-])[O-].[Fe+3]", "note": "[Complex 4, [Fe^III(L^2)2]NO3]", "values": [{"measurement": "GI50", "setting": "EKVX", "value": 2250, "unit": "nM"}, {"measurement": "GI50", "setting": "U251", "value": 1970, "unit": "nM"}, {"measurement": "GI50", "setting": "OVCAR-8", "value": 2500, "unit": "nM"}, {"measurement": "IC50", "setting": "[1]", "value": "14000 to 17000 nM and 17000 nM"}, {"measurement": "IC50", "setting": "[2]", "value": "> 80000", "unit": "nM"}]}]}
